Consider 24 molecules from ChEMBL document CHEMBL2029220, “Oxaphosphinanes: new therapeutic perspectives for glioblastoma” (J Med Chem, 2012).

This assay relates to C6. Description: Antiproliferative activity against rat C6 cells after 48 hrs by MTT assay. The class given is functional, cell-based. The following applies: C6, 48 h.

pEC50: −log10 of the molar value.

In the case of `O=[P@]1(c2cccc(F)c2)O[C@H](COCc2ccccc2)[C@@H](OCc2ccccc2)[C@H](OCc2ccccc2)[C@@H]1O`, the pEC50 is below 4.60.

For the molecule `Cc1cccc([P@@]2(=O)O[C@H](COCc3ccccc3)[C@@H](OCc3ccccc3)[C@H](OCc3ccccc3)[C@H]2O)c1`, the pEC50 is below 4.60.

`O=C(O[C@@H]1[C@@H](OCc2ccccc2)[C@H](OCc2ccccc2)[C@@H](COCc2ccccc2)O[P@@]1(=O)c1ccccc1)c1ccccc1`: the pEC50 is below 4.60.

In turn, `N[C@@H]1[C@@H](OCc2ccccc2)[C@H](OCc2ccccc2)[C@@H](COCc2ccccc2)O[P@@]1(=O)c1ccccc1` had a pEC50 of 4.79.

Take `O=[P@]1(c2ccccc2)O[C@H](COCc2ccccc2)[C@@H](OCc2ccccc2)[C@H](OCc2ccccc2)[C@@H]1O` (single isomer, unassigned): the negative-log EC50 (pEC50) was 4.92.

The molecule `CSC(=S)O[C@H]1[C@@H](OCc2ccccc2)[C@H](OCc2ccccc2)[C@@H](COCc2ccccc2)O[P@@]1(=O)c1ccccc1` had a pEC50 below 4.60.

Consider `Cc1cccc([P@]2(=O)O[C@H](COCc3ccccc3)[C@@H](OCc3ccccc3)[C@H](OCc3ccccc3)[C@H]2O)c1`, for which the pEC50 is below 4.60.

Molecule `COc1cccc([P@]2(=O)O[C@H](COCc3ccccc3)[C@@H](OCc3ccccc3)[C@H](OCc3ccccc3)[C@H]2O)c1` had a pEC50 below 4.60.

`O=C(O[C@@H]1[C@@H](OCc2ccccc2)[C@H](OCc2ccccc2)[C@@H](COCc2ccccc2)O[P@@]1(=O)c1ccccc1)C(F)(F)F` gave a pEC50 below 4.60.

Take `O=[P@]1(c2ccccc2)O[C@H](COCc2ccccc2)[C@@H](OCc2ccccc2)[C@H](OCc2ccccc2)[C@H]1O`: the pEC50 was 4.92.

Regarding `Cc1ccc([P@@]2(=O)O[C@H](COCc3ccccc3)[C@@H](OCc3ccccc3)[C@H](OCc3ccccc3)[C@@H]2O)cc1`, the pEC50 was below 4.60.

In the case of `O=[P@@]1(c2cccc(C(F)(F)F)c2)O[C@H](COCc2ccccc2)[C@@H](OCc2ccccc2)[C@H](OCc2ccccc2)[C@@H]1O`, the pEC50 is below 4.60.

With `CSC(=S)O[C@@H]1[C@@H](OCc2ccccc2)[C@H](OCc2ccccc2)[C@@H](COCc2ccccc2)O[P@@]1(=O)c1ccccc1`, the pEC50 was 4.85.

As for `Cc1cccc([P@@]2(=O)O[C@H](COCc3ccccc3)[C@@H](OCc3ccccc3)[C@H](OCc3ccccc3)[C@@H]2O)c1`, the pEC50 is below 4.60.

Consider `O=[P@@]1(c2cccc(F)c2)O[C@H](COCc2ccccc2)[C@@H](OCc2ccccc2)[C@H](OCc2ccccc2)[C@H]1O`, for which the negative logarithm of the EC50 (pEC50) was below 4.60.

In turn, `COc1ccc([P@@]2(=O)O[C@H](COCc3ccccc3)[C@@H](OCc3ccccc3)[C@H](OCc3ccccc3)[C@@H]2O)cc1` gave a pEC50 of 4.82.

`COc1cccc([P@@]2(=O)O[C@H](COCc3ccccc3)[C@@H](OCc3ccccc3)[C@H](OCc3ccccc3)[C@H]2O)c1`: the negative-log EC50 (pEC50) is below 4.60.

Turning to `COc1ccc([P@@]2(=O)O[C@H](COCc3ccccc3)[C@@H](OCc3ccccc3)[C@H](OCc3ccccc3)[C@H]2O)cc1`, the pEC50 was 4.82.

Take `[N-]=[N+]=N[C@@H]1[C@@H](OCc2ccccc2)[C@H](OCc2ccccc2)[C@@H](COCc2ccccc2)O[P@@]1(=O)c1ccccc1`: the pEC50 is 4.78.

Take `O=[P@]1(c2ccccc2)C[C@@H](OCc2ccccc2)[C@H](OCc2ccccc2)[C@@H](COCc2ccccc2)O1`: the pEC50 was 5.08.

`O=[P@]1(c2cccc(F)c2)O[C@H](COCc2ccccc2)[C@@H](OCc2ccccc2)[C@H](OCc2ccccc2)[C@H]1O` showed a pEC50 below 4.60.

As for `O=C(Nc1ccccc1)N[C@@H]1[C@@H](OCc2ccccc2)[C@H](OCc2ccccc2)[C@@H](COCc2ccccc2)O[P@@]1(=O)c1ccccc1`, the pEC50 is 5.36.

Take `O=[P@@]1(c2ccccc2)O[C@H](COCc2ccccc2)[C@@H](OCc2ccccc2)[C@H](OCc2ccccc2)[C@H]1OCc1ccccc1`: the pEC50 is 5.28. This pEC50 and that of the molecule before are within 0.2 log units of each other.

As to `COc1ccc([P@]2(=O)O[C@H](COCc3ccccc3)[C@@H](OCc3ccccc3)[C@H](OCc3ccccc3)[C@H]2O)cc1`, the pEC50 is 5.08.

In general, pEC50 refers to the EC50 on a negative log10 scale, so that one unit is a factor of ten. Read a high pEC50 as a low EC50.
